# Measured values: patent publication US20240294499A1, “TARGETED PROTEIN DEGRADATION USING BIFUNCTIONAL COMPOUNDS THAT BIND UBIQUITIN LIGASE AND TARGET MCL-1 PROTEIN” (Captor Therapeutics S.A., priority 2021, published 2024)
# Legend:
# iCELL Cardiomyocytes = test: Cardiac safety: caspase 3 and 7 activation (Caspase-Glo 3/7) in iCELL Cardiomyocytes; type: cell-based; details: 1.2 uM, 24 hours incubation, vs DMSO
# Source text: The effect of various compounds of the invention and a reference compound AZD5991 on cardiac safety was investigated by the evaluation of caspase 3 and 7 activation using Caspase-Glo 3/7 Assay (Promega; G8092) in iCELL™ Cardiomyocytes from FUJIFILM Cellular Dynamics (Catalog number: 11713). In the Caspase-Glo® 3/7 Assay, the luminescence (measured as Relative Luciferase Units, RLU) is proportional to the amount of caspase activity present in each sample.
# The assay is initiated by thawing and seeding iCell® Cardiomyocytes as specified in the User Guide. After 48 hours, the cells are washed to remove unattached cells and debris and immediately treated with compounds or DMSO diluted in the maintenance medium (FCDI; cat: M1003). Compound concentrations used in this assay: 7 points 1/3 dilution curve starting at 100 uM. After 24 hours of incubation with compounds, caspase activity is measured by the addition of the Caspase-Glo® 3/7 Reagent followed by the luminescence measurement.
# The analysis of the results is performed by calculation of the fold change in caspase 3/7 activity at a given compound concentration. Fold change is calculated with the formula: […]
# where: • RLU Xi is the Relative Luciferase Units of sample I; • RLU BG is the Background Relative Luciferase Units; • RLU C is the Relative Luciferase Units of Control (DMSO).
# The experiments were performed in technical duplicates.
# [1] = test system: hiPSC-CM (iCELL Cardiomyocytes); test: Cardiac safety: hiPSC-CM cell viability assay (CTG); type: cell-based, human; details: viability, CTG assay, treatment until day 14
# Source text: The effect of various compounds of the invention and a reference compounds AZD5991 and MIK665 on cardiac safety was investigated by the evaluation of viability with CTG assay (Promega; cat #G7572) in iCELL™ Cardiomyocytes from FUJIFILM Cellular Dynamics (Catalog number: 11713).
# Cells were thawed, counted using an automated cell counter (TC20, Bio-Rad) and seeded in 96 well plates (Greiner-BioOne; 655098) previously coated with 0.1% gelatin (Sigma-Aldrich; G1890) using Plating Medium (#M1001) following the instructions of the iCELL cardiomyocytes User Guide. Forty ml of Plating Medium was used to equally distribute the cells in four 96 well plates. Cells were then placed in the incubator at 37° C., 5% CO2 and left undisturbed for 48 hours. Compounds were serially diluted in DMSO and then further diluted to final assay concentration using maintenance medium (#M1003). Final DMSO concentration was 0.5%. Forty eight hours after plating, non-adherent cells and debris were washed as described in the User Guide. Plating medium was then replaced with maintenance medium containing diluted compounds or DMSO (as control). Medium was then changed every 2 days with fresh medium containing compounds or DMSO until the end of the treatment. On day 14, only medium without compounds was used immediately before the CTG assay. Luminescence signal was measured using a CLARIOstar Plus Multi-Mode Microplate Reader (574-590 nm).
# [2] = test system: iPSC-derived cardiomyocytes (iPSC-CMs); test: caspase 3/7 activity in iPSC-derived cardiomyocytes; type: cell-based; details: 100 μM, FIG. 5
compound,measurement,setting,value
"Cc1c2c(nn1C)CSCc1cc(n(C)n1)CSc1cc(c3ccccc3c1)OCCCc1c(C(=O)O)n(C)c3c-2c(Cl)ccc13 [AZD5991, reference compound]",Fold change at 1.2 uM (caspase 3/7 activity in cardiomyocytes),iCELL Cardiomyocytes,2.9 ± 0.5
same,IC50,"[1]; Homo sapiens, Cardiomyocyte, 336 h, read-out: Average pIC50 by molecule hiPSC-CM (converted)",631 nM
Cc1c2c(nn1C)CSCc1cc(n(C)n1)CSc1cc(c3ccccc3c1)OCCCc1c(C(=O)O)n(C)c3c-2c(Cl)ccc13 [AZD-5991],"cell death in iPSC-CMs (caspase 3/7 assay, concentration point not displayed)",[2],excessive cell death
MIK665 [reference compound],Average pIC50 by molecule hiPSC-CM,[1],6.9
